Source: patent US20030165854A1, “Marker genes responding to treatment with toxins” (priority 2000, published 2003)

Legend:
[1] = tested on: rat liver cDNAs SEQ ID NOs: 1-61; assay type: in vivo, Han/Wistar rat; conditions: Strain HW; for Maximum Abundance, SEQ ID NO 14, Clone ID 700330824: Sex F
[2] = tested on: rat liver cDNAs SEQ ID NOs: 1-61; assay type: in vivo, Han/Wistar rat; conditions: Strain HW, Sex F

| SMILES | Maximum Abundance, SEQ ID NO 16, Clone ID 700024834 [1] | Maximum Abundance, SEQ ID NO 18, Clone ID 700060675 [1] | Maximum Abundance, SEQ ID NO 19, Clone ID 700062240 [1] | Maximum Abundance, SEQ ID NO 23, Clone ID 700067778 [1] | Maximum Abundance, SEQ ID NO 24, Clone ID 700123633 [1] | Maximum Abundance, SEQ ID NO 25, Clone ID 700127949 [1] | Maximum Abundance, SEQ ID NO 26, Clone ID 700132557 [1] | Maximum Abundance, SEQ ID NO 27, Clone ID 700135733 [1] | Maximum Abundance, SEQ ID NO 28, Clone ID 700135850 [1] | Maximum Abundance, SEQ ID NO 31, Clone ID 700140450 [1] | Maximum Abundance, SEQ ID NO 34, Clone ID 700177158 [1] | Maximum Abundance, SEQ ID NO 38, Clone ID 700185871 [1] | Maximum Abundance, SEQ ID NO 41, Clone ID 700248367 [1] | Maximum Abundance, SEQ ID NO 45, Clone ID 700305380 [1] | Maximum Abundance, SEQ ID NO 48, Clone ID 700363174 [1] | Maximum Abundance, SEQ ID NO 50, Clone ID 700480077 [1] | Maximum Abundance, SEQ ID NO 53, Clone ID 700818852 [1] | Maximum Abundance, SEQ ID NO 54, Clone ID 700937735 [1] | Maximum Abundance, SEQ ID NO 61, Clone ID 701637512 [1] | Maximum Abundance, SEQ ID NO 14, Clone ID 700330824 [1] | other results |
| --- | --- | --- | --- | --- | --- | --- | --- | --- | --- | --- | --- | --- | --- | --- | --- | --- | --- | --- | --- | --- | --- |
| ClC(Cl)(Cl)Cl [CCI4, carbon tetrachloride] | 3 | 4 | 5 | 3 | 3 | 3 | 7 | 4 | 3 | 8 | 3 | 3 | 3 | 4 | 3 | 3 | 5 | 8 | 4 | 3 | Maximum Abundance, SEQ ID NO 29, Clone ID 700137416 [1]: 4; Maximum Abundance, SEQ ID NO 30, Clone ID 700140375 [1]: 3; Maximum Abundance, SEQ ID NO 32, Clone ID 700144406 [1]: 4; Maximum Abundance, SEQ ID NO 33, Clone ID 700175249 [1]: 7; Maximum Abundance, SEQ ID NO 36, Clone ID 700181614 [1]: 3; Maximum Abundance, SEQ ID NO 37, Clone ID 700182016 [1]: 3; Maximum Abundance, SEQ ID NO 39, Clone ID 700198357 [1]: 3; Maximum Abundance, SEQ ID NO 40, Clone ID 700230123 [1]: 4; Maximum Abundance, SEQ ID NO 42, Clone ID 700250877 [1]: 3; Maximum Abundance, SEQ ID NO 43, Clone ID 700253694 [1]: 3; Maximum Abundance, SEQ ID NO 44, Clone ID 700303850 [1]: 3; Maximum Abundance, SEQ ID NO 46, Clone ID 700313077 [1]: 3; Maximum Abundance, SEQ ID NO 47, Clone ID 700361225 [1]: 3; Maximum Abundance, SEQ ID NO 49, Clone ID 700478138 [1]: 5; Maximum Abundance, SEQ ID NO 52, Clone ID 700491990 [1]: 3; Maximum Abundance, SEQ ID NO 56, Clone ID 701257766 [1]: 3; Maximum Abundance, SEQ ID NO 58, Clone ID 701574951 [1]: 3; Maximum Abundance, SEQ ID NO 59, Clone ID 701578278 [1]: 3; Maximum Abundance, SEQ ID NO 60, Clone ID 701597659 [1]: 3 |
| S=C=Nc1cccc2ccccc12 [ANIT, α-naphthylisothiocyanate] | 3 | 4 | 5 | 3 | 3 | – | – | – | – | 8 | 3 | 3 | 3 | 4 | 3 | 3 | 5 | 8 | 4 | 3 | Maximum Abundance, SEQ ID NO 15, Clone ID 700024728 [1]: 3; Maximum Abundance, SEQ ID NO 17, Clone ID 700059927 [1]: 4; Maximum Abundance, SEQ ID NO 20, Clone ID 700063569 [1]: 3; Maximum Abundance, SEQ ID NO 21, Clone ID 700064131 [1]: 3; Maximum Abundance, SEQ ID NO 29, Clone ID 700137416 [1]: 4; Maximum Abundance, SEQ ID NO 32, Clone ID 700144406 [1]: 4; Maximum Abundance, SEQ ID NO 33, Clone ID 700175249 [1]: 7; Maximum Abundance, SEQ ID NO 35, Clone ID 700179766 [1]: 3; Maximum Abundance, SEQ ID NO 36, Clone ID 700181614 [1]: 3; Maximum Abundance, SEQ ID NO 39, Clone ID 700198357 [1]: 3; Maximum Abundance, SEQ ID NO 40, Clone ID 700230123 [1]: 4; Maximum Abundance, SEQ ID NO 49, Clone ID 700478138 [1]: 5; Maximum Abundance, SEQ ID NO 51, Clone ID 700483222 [1]: 3; Maximum Abundance, SEQ ID NO 55, Clone ID 701197728 [1]: 3; Maximum Abundance, SEQ ID NO 56, Clone ID 701257766 [1]: 3; Maximum Abundance, SEQ ID NO 57, Clone ID 701341861 [1]: 3; Maximum Abundance, SEQ ID NO 60, Clone ID 701597659 [1]: 3; Maximum Abundance, SEQ ID NO 12, Clone ID 700062506 [2]: 3 |
| CC(=O)Nc1cccc2c1-c1ccccc1C2 [4-AAF, 4-acetylaminofluorene] | 3 | – | 5 | – | – | 3 | 7 | 4 | 3 | 8 | 3 | 3 | 3 | 4 | 3 | 3 | 5 | 8 | 4 | 3 | Maximum Abundance, SEQ ID NO 15, Clone ID 700024728 [1]: 3; Maximum Abundance, SEQ ID NO 21, Clone ID 700064131 [1]: 3; Maximum Abundance, SEQ ID NO 22, Clone ID 700065081 [1]: 3; Maximum Abundance, SEQ ID NO 30, Clone ID 700140375 [1]: 3; Maximum Abundance, SEQ ID NO 37, Clone ID 700182016 [1]: 3; Maximum Abundance, SEQ ID NO 43, Clone ID 700253694 [1]: 3; Maximum Abundance, SEQ ID NO 44, Clone ID 700303850 [1]: 3; Maximum Abundance, SEQ ID NO 51, Clone ID 700483222 [1]: 3; Maximum Abundance, SEQ ID NO 57, Clone ID 701341861 [1]: 3; Maximum Abundance, SEQ ID NO 58, Clone ID 701574951 [1]: 3; Maximum Abundance, SEQ ID NO 12, Clone ID 700062506 [2]: 3; Maximum Abundance, SEQ ID NO 13, Clone ID 700135749 [2]: 4 |
